Data on two substances can be found in patent publication US20070208088A1, “PQS: A NEW HYDROTROPE FOR SOLUBILIZING LIPOPHILIC COMPOUNDS IN WATER” (ZYMES, LLC, priority 2006, published 2007).

The data set can be described thus: Micelle formation and micelle particle size in aqueous solution. The format is physicochemical. The note with it: for particle size of the micelles: micelles formed in aqueous solution. The source says:
In one example, the compounds of the invention form micelles when added to an aqueous solution. The particle sizes of these micelles can be determined using art recognized methods, such as light scattering techniques. In one embodiment, the particle size is between about 300 nm and about 1 nm, preferably between about 200 nm and about 1 nm, more preferably between about 100 nm and about 1 nm. Smaller particle sizes are generally preferred.
Smaller micelle size is generally preferred.

Take “polyoxyethanyl-ubiquinol-sebacate [PQS-1000]”: the “micelle formation in aqueous solution” value is “forms micelles” and the “particle size of the micelles” value was “about 80 nm”.
Regarding “polyoxyethanyl-ubiquinol-sebacate [PQS-600]”, the “micelle formation in aqueous solution” value was “forms micelles” and the “particle size of the micelles” value was “about 120 nm”.
